Measured values from US7399869B2, “Fibroblast activation protein inhibitor compounds and methods” (Genentech, Inc., priority 2005, dated 2008).
Non-standard residues stand in square brackets, D forms with d. Residues, ends and D or L forms follow the SMILES beside them. ξ: configuration not given here. *: point of attachment. AFC = O=c1cc(C(F)(F)F)c2ccc(N*)cc2o1; AMC = Cc1cc(=O)oc2cc(N*)ccc12; Cbz = O=C(OCc1ccccc1)*; ξP = O=C(O)C1CCCN1

What was measured:
Type in all cases: biochemical
FAP [1] = biological target: T1, FAP (Homo sapiens, UniProt Q12884); test: Hydrolysis of C-terminal coumarin dipeptide substrates by FAP (kinetic constants); parameters: FAP (amino acids 38-760); FLAG (N); made in house; host or cells: 293 cells (secreted, purified from serum-free conditioned media); settings: for Km / Kcat: pH 7.4, NC = no cleavage up to 1 mM substrate
T1 sequence (Q12884 38-760): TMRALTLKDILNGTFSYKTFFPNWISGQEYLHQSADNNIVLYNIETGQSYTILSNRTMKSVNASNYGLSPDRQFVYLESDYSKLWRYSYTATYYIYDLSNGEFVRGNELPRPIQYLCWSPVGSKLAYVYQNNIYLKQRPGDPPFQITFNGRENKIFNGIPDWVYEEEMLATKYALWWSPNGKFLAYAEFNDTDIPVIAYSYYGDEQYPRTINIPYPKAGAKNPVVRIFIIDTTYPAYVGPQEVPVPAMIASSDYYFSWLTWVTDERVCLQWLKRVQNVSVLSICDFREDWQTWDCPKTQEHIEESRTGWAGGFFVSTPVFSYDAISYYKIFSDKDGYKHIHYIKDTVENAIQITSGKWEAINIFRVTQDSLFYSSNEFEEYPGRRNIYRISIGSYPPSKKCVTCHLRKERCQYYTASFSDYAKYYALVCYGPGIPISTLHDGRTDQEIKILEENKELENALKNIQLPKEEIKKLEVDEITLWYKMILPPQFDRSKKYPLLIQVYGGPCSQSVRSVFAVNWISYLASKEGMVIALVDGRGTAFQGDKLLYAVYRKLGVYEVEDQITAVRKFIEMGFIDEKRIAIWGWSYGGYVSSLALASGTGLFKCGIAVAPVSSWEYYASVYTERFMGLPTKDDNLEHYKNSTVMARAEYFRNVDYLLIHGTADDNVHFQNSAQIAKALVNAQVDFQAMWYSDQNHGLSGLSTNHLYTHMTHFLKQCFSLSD
Description: (§1) The relative cleavage rates by FAP and several dipeptidases of N-blocked (8) and unblocked (7) Gly-Pro dipeptide substrates were measured.
(§2) The cleavage (hydrolysis) rates of various C-terminal coumarin dipeptide substrates 7-16 by FAP and DPP-4 were measured (Tables 4 and 5). The amino-terminus of the substrates was unblocked and the amino acids were varied in Table 4. The amino-terminus of the substrates was blocked and the amino acids were varied in Table 5. To extend the results obtained with the dipeptide substrate library, kinetic parameters were determined for cleavage of the unblocked dipeptide substrates by FAP (Table 4). The catalytic efficiency (kcat/Km) for substrate cleavage was greatest with Ile-Pro-AFC, followed by Ala-Pro-, Gly-Pro- and Phe-Pro-AFC, consistent with the dipeptide substrate library results (FIG. 5). […] Kinetic constants for cleavage of Ala-Pro-AFC and Gly-Pro-AFC by DPP-4 were determined (Table 4). The catalytic efficiency for Ala-Pro-AFC hydrolysis was greater than that for Gly-Pro-AFC, and consistent with the dipeptide library.
(§3) Protease Assays—Protease activity was monitored continuously using a SpectraMax M2 microplate reader (Molecular Devices Corp., Sunnyvale Calif.) in the kinetic mode. Assays were conducted at 23° C. in 50 mM Tris (pH 7.4), 100 mM NaCl, 1 mM EDTA. The excitation/emission wavelengths for the different fluorogenic substrates were 360/460 nm (AMC), 400/505 nm (AFC), 340/425 nm (MNA), 340/510 nm (EDANS), and 337/425 nm (Abs). Standard curves of the appropriate fluorescent product versus concentration were used to convert relative fluorescence units to nmol of product produced. Substrates in the X-Pro-AMC library were used in rate assays at 5 μM final concentration. […] The kinetic parameters were calculated from Michaelis-Menten plots (V0 versus [S]) with nonlinear regression analysis using GraphPad software. kcat values were calculated under the assumption that each protease was 100% active.
(§4) When saturating amounts of substrate could not be achieved, catalytic efficiencies (kcat/Km) were determined under pseudo-first order conditions ([S]<<the estimated Km) and fit to the following equation: Ln[St/S0]=−kobst, where St is the concentration of substrate remaining at time t, S0 is the initial substrate concentration and kobs is the apparent first order substrate cleavage constant equal to (kcat/Km) times ET, the total enzyme concentration (Copeland, R. (2000) Enzymes, A Practical Introduction to Structure, Mechanism, and Data Analysis, 2nd Ed., John Wiley and Sons, Inc, New York). The linear relationship of Ln[St/S0] versus time allows calculation of kcat/Km by dividing the slope of the plot by ET.

DPP-4 [2] = biological target: T2, DPP-4 (Homo sapiens, UniProt P27487); test: Inhibition of DPP-4 by N-blocked boroPro compounds (progress curves); parameters: DPP-4 (amino acids 39-766); FLAG (N); made in house; host or cells: 293 cells (secreted, purified from serum-free conditioned media); settings: cleavage of substrate L-Ala-Pro-AFC
T2 sequence (P27487 39-766): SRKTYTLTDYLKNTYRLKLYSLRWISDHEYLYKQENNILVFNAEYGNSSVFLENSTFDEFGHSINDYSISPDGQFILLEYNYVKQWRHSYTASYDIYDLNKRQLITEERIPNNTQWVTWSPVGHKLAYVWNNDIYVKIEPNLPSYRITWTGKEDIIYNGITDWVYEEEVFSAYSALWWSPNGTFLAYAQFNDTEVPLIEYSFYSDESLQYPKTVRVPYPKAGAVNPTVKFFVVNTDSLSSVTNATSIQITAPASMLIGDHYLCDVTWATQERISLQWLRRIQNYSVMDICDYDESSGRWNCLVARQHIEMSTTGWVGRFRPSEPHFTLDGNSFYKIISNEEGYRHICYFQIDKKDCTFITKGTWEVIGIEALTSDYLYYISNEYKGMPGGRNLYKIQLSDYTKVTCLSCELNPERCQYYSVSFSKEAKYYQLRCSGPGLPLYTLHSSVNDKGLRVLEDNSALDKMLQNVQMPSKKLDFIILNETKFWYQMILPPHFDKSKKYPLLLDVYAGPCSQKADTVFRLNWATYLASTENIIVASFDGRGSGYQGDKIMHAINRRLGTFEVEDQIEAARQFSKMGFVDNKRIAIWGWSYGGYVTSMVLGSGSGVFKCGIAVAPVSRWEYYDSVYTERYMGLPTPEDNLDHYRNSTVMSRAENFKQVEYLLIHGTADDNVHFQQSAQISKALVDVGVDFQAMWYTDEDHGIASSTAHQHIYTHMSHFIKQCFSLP
Description: The steady states of product formation in the absence (V0) and presence of inhibitor (Vi) were used to calculate apparent inhibition constants (Kiapp) by plotting V0/Vi−1 against inhibitor concentration.
Briefly, proteases were added to a reaction mixture containing inhibitor and substrate (Ac-Ala-AMC for APH, Z-Gly-Pro-AMC for POP, and Ala-Pro-AFC for all others) in assay buffer at 23° C. Protease activity was followed continuously as described above to monitor time-dependent inhibition. Data were plotted as V0/Vi−1 versus [I], where V0 is the rate if substrate hydrolysis in the absence of inhibitor, Vi is the steady state rate of substrate hydrolysis in the presence of inhibitor and [I] is the concentration of Ac-Gly-BoroPro.
KI values for inhibition of proteases by 5 were determined using the method of progress curves. Briefly, proteases (10-100 nM) were added to a reaction mixture containing inhibitor 5 (0-10 μM) and substrate AP-AFC in assay buffer at 23° C. […] Data were plotted as V0/Vi−1 versus [I], where V0 is the rate if substrate hydrolysis in the absence of inhibitor, Vi is the steady state rate of substrate hydrolysis in the presence of inhibitor and [I] is the concentration of 5. […] Ki, the true equilibrium inhibition constant was determined according to the following relationship: Ki=Kobs/(1+[S]/Km), where [S] is the concentration of substrate used in the assay and Km is the Michaelis constant for substrate cleavage.

DPP-4 [3] = biological target: T2, DPP-4; test: Relative cleavage rates of coumarin (AMCC) dipeptide substrates by DPP-4; parameters: DPP-4 (amino acids 39-766); FLAG (N); made in house; host or cells: 293 cells (secreted, purified from serum-free conditioned media); settings: for cleavage of N-substituted-Gly-Pro-AMCC substrates by DPP-4 (in words) / relative cleavage rate by DPP-4: DPP-4 6.8 nM; for cleavage of N-substituted-Gly-Pro-AMCC substrates by DPP-4 (in words): substrate concentrations up to 1 mM; for relative cleavage rate by DPP-4: N-blocked Gly-Pro-AMCC substrates 6, normalized to N-unblocked Gly-Pro-AMCC
Description: (§5) The relative cleavage rates of a variety of N-blocked, C-terminal coumarin (AMCC) Gly-Pro dipeptide substrates 6 were measured. The rates were normalized to N-unblocked Gly-Pro-AMCC for FAP and DPP-4.
(§6) To examine whether FAP could cleave other N-substituted-Gly-Pro-based substrates, N-methyl-, formyl-, succinyl-, benzyloxycarbonyl-(Z-) and biotinyl-Gly-Pro-AMCC substrates 6 were synthesized and reacted with FAP (37 nM) and DPP-4 (6.8 nM).
(§7) Amino-terminus P2 was varied with the L-amino acids: alanine, aspartic acid, glutamic acid, phenylalanine, glycine, histidine, isoleucine, lysine, leucine, methionine, asparagine, proline, glutamine, arginine, serine, threonine, valine, tryptophan, and tyrosine (from left). AMCC=2-(7-amino-4-methyl-2-oxo-2H-chromen-3-yl)acetamide. For both enzymes, the amino acid adjacent in the model dipeptide substrate had little effect where the amino-terminus was unblocked. Hydrolysis rates of other P2-Pro-AMCC substrates by FAP and DPP-4 relative to Gly-Pro-AMCC include the following in Table 6:
as §3

FAP [4] = biological target: T1, FAP; test: Relative cleavage rates of coumarin (AMCC) dipeptide substrates by FAP; parameters: FAP (amino acids 38-760); FLAG (N); made in house; host or cells: 293 cells (secreted, purified from serum-free conditioned media); settings: for relative cleavage rate by FAP: N-blocked Gly-Pro-AMCC substrates 6, normalized to N-unblocked Gly-Pro-AMCC, FAP 37 nM
Description: as §5, §6, §7, §3

DPP-4 [5] = biological target: T2, DPP-4; test: Hydrolysis of C-terminal coumarin dipeptide substrates by DPP-4 (kinetic constants); parameters: DPP-4 (amino acids 39-766); FLAG (N); made in house; host or cells: 293 cells (secreted, purified from serum-free conditioned media)
Description: as §1, §2, §3, §4

[6] = FAP, substrates with unblocked N-termini, 23° C. in 50 mM Tris-HCl, 100 mM NaCl, 1 mM EDTA
[7] = FAP, substrates with unblocked N-termini, 23° C.
[8] = FAP, substrates with blocked N-termini, 23° C.
[9] = P2-Pro-AMCC substrates, hydrolysis rates normalized to Gly-Pro-AMCC
[10] = DPP-4, substrates with unblocked N-termini, 23° C., pH 7.4

NC(Cc1ccccc1)C(=O)N1CCCC1C(=O)Nc1ccc2c(C(F)(F)F)cc(=O)oc2c1 (stereo not drawn) [Phe-Pro-AFC 10, Phe-Pro-AFC] (H-Phe-Pro-{AFC}; configuration not given here)
Km (FAP [1]; [6]): 245 ± 22 µM | Kcat (FAP [1]; [7]): 1.1 ± 0.1 s⁻¹

CC(=O)N[C@H](C)C(=O)N1CCCC1B(O)O (some centres unmarked) [N-Ac-(D)Ala-boroPro]
Ki (DPP-4 [2]): > 40 µM

N-methyl-Gly-Pro-AMCC
cleavage of N-substituted-Gly-Pro-AMCC substrates by DPP-4 (in words) (DPP-4 [3]): comparable to Gly-Pro-AMCC

Cc1cc(=O)oc2cc(NC(=O)[C@H](C)NC(=O)CN)ccc12 [Gly-Ala-AMC 11, Gly-Ala-AMC] (H-Gly-Ala-{AMC})
cleavage by FAP (in words) (FAP [1]): not cleaved

biotinyl-Gly-Pro-AMCC
cleavage of N-substituted-Gly-Pro-AMCC substrates by DPP-4 (in words) (DPP-4 [3]): no cleavage | relative cleavage rate by DPP-4 (DPP-4 [3]): 0% | relative cleavage rate by FAP (FAP [4]): 40%

Cc1cc(=O)oc2cc(NC(=O)C3CCCN3C(=O)CNC(=O)OCc3ccccc3)ccc12 (stereo not drawn) [Z-Gly-Pro-AMC 14, Benzyloxycarbonyl (Z)-Gly-Pro-7-amino-4-methylcoumarin] (Cbz-Gly-[ξP]-{AMC})
catalytic efficiency, fold lower than that for Gly-Pro-AFC (FAP [1]; FAP): about 3 fold | Kcat (FAP [1]; [8]): <30 s⁻¹ | Km (FAP [1]; [8]): > 4 µM | DPP-4 activity against substrate (in words) (DPP-4 [5]): little activity

O=C(O)c1ccc2c(c1)C(=O)OC21c2ccc(O)cc2Oc2cc(O)ccc21 [5-carboxyfluorescein]
relative cleavage rate by DPP-4 (DPP-4 [3]): 0% | relative cleavage rate by FAP (FAP [4]): 36%

succinyl-Gly-Pro-AMCC [HO2CCH2CH2C(═O)]
cleavage of N-substituted-Gly-Pro-AMCC substrates by DPP-4 (in words) (DPP-4 [3]): no cleavage | relative cleavage rate by DPP-4 (DPP-4 [3]): 0% | relative cleavage rate by FAP (FAP [4]): 0%

Cc1c(CC(N)=O)c(=O)oc2cc(NC(=O)[C@@H]3CCCN3C(=O)[C@@H](C)N)ccc12 [D-Ala]
Relative Hydrolysis rate by DPP-4 (DPP-4 [3]; [9]): 2 | Relative Hydrolysis rate by FAP (FAP [4]; [9]): 0

Cc1cc(=O)oc2cc(NC(=O)C(C)NC(=O)C(N)CCCCN)ccc12 (stereo not drawn) [Lys-Ala-AMC 12, Lys-Ala-AMC] (H-Lys-Ala-{AMC}; configuration not given here)
catalytic efficiency, fold less than for cleavage of P2-Pro-based peptides (FAP [1]; FAP): 400-1000 fold | Km (FAP [1]; [6]): 189 ± 20 µM | Kcat (FAP [1]; [7]): 0.01 ± 0.001 s⁻¹

CC[C@H](C)[C@H](N)C(=O)N1CCC[C@H]1C(=O)Nc1ccc2c(C(F)(F)F)cc(=O)oc2c1 [Ile-Pro-AFC 13, Ile-Pro-AFC] (H-Ile-Pro-{AFC})
Km, fold lower than the other P2-Pro-AFC substrates (FAP [1]; FAP): ~2.5 fold | Km (FAP [1]; [6]): 106 ± 6 µM | Kcat (FAP [1]; [7]): 6.9 ± 0.3 s⁻¹

formyl-Gly-Pro-AMCC [HC(═O)]
cleavage of N-substituted-Gly-Pro-AMCC substrates by DPP-4 (in words) (DPP-4 [3]): low rate of hydrolysis | relative cleavage rate by DPP-4 (DPP-4 [3]): 7% | relative cleavage rate by FAP (FAP [4]): 130%

C[C@H](N)C(=O)N1CCC[C@H]1C(=O)Nc1ccc2c(C(F)(F)F)cc(=O)oc2c1 [Ala-Pro-AFC 9, Ala-Pro-7-amino-4-trifluoromethylcoumarin] (H-Ala-Pro-{AFC})
Km (FAP [1]; [6]): 244 ± 28 µM | Kcat (FAP [1]; [7]): 14.2 ± 0.9 s⁻¹ | Kcat (DPP-4 [5]; [10]): 45.6 ± 1.7 s⁻¹ | Km (DPP-4 [5]; [10]): 16 ± 3 µM
